Reference: publication PMC9865825, “Synthesis and Antiparasitic Activity of New Trithiolato-Bridged Dinuclear Ruthenium(II)-arene-carbohydrate Conjugates” (Molecules, 2023)

Assays:
in vitro = settings: human
Method: (§1) The viability of treated HFF was measured by the alamarBlue metabolic assay, and the proliferation of T. gondii β-gal was quantified by the β-galactosidase colorimetric test. In both cases, results are expressed as percentage (%) compared to control parasitic and host cells treated with 0.1% DMSO for which proliferation and viability were set to 100% (Table 1).
(§2) All tissue culture media were purchased from Gibco-BRL, and biochemical agents from Sigma-Aldrich. […] Transgenic T. gondii β-gal tachyzoites (expressing the β-galactosidase gene from Escherichia coli) from RH strain were kindly provided by Prof.
(§3) The screening sequence for the compounds was described in previous reports. All compounds were prepared as 1 mM stock solutions from powder in dimethyl sulfoxide (DMSO, Sigma, St. Louis, MO, USA). For in vitro activity and cytotoxicity assays, HFF were seeded at 5 × 10^3/well in 96 well plates and allowed to grow to confluence in complete culture medium at 37 °C and 5% CO2.
(§4) All calculations were performed using the corresponding software tool contained in the Excel software package (Microsoft, Redmond, WA, USA). […] Then the medium was removed, the plates were washed once with PBS and 200 μL of resazurin (1:200 dilution in PBS) were added to each well. […] Fluorescence was measured at two different time points: T0 as starting timepoint and T5h as at 5 h later. Relative fluorescence units were calculated from time points with linear increases.

[1] = test system: T. gondii β-gal tachyzoites; test: In vitro proliferation of T. gondii β-gal tachyzoites in HFF, β-galactosidase colorimetric test (primary screening and IC50); format: cell-based, Toxoplasma gondii; settings: for T. Gondii β-gal Growth (%): 72 h, tachyzoites in HFF, vs 0.1% DMSO control = 100%
Method: In a primary screening, each compound was evaluated at two concentrations 0.1 and 1 µM and added to the media prior to the infection as previously described. Control non-infected non-treated HFF cultures and T. gondii β-gal infected but not-treated cultures were cultivated in complete medium containing 0.01 or 0.1% DMSO. The 96-well plates were incubated for 72 h at 37 °C/5% CO2 as previously described.
For the IC50 determination on T. gondii β-gal, eight serial concentrations ranging from 7 nM to 1 μM were tested for each selected compound as previously described and the β-galactosidase assay was performed as reported. Briefly, infected HFF cultures in 96-well plates were lysed with PBS containing 0.05% Triton X-100. Then the substrate chlorophenolred-β-D-galactopyranoside (CPRG; Roche Diagnostics, Rotkreuz, Switzerland) was added in a final concentration of 0.5 mM. Absorption was measured at 570 nm wavelength using an EnSpire® multimode plate reader (PerkinElmer, Inc., Waltham, MA, USA).

[2] = Stability in DMSO-d6 followed by 1H NMR; settings: 25 °C, 5 min and more than 1 month after sample preparation
[3] = test system: human foreskin fibroblasts (HFF); test: in vitro
Method: as §1, §2, §3, §4

Structure (SMILES) | viability at 72 h, 0.1 µM (in vitro) [%] | viability at 72 h, 1 µM (in vitro) [%] | T. Gondii β-gal Growth (%) ([1]; 0.1 µM) | T. Gondii β-gal Growth (%) ([1]; 1 µM) | Antiparasitic activity (in words) ([1]; 0.1 and 1 µM) | Stability in DMSO-d6 (1H NMR spectra) [2] | HFF Viability (%) ([3]; 0.1 µM) | HFF Viability (%) ([3]; 1 µM) | HFF Viability at 2.5 µM (%) ([3]; 2.5 µM) | IC50 ([1]; eight serial concentrations 7 nM to 1 µM) [nM]
CC(=O)OC[C@H]1O[C@@H](N=[N+]=[N-])[C@H](OC(C)=O)[C@@H](OC(C)=O)[C@@H]1OC(C)=O [Compound 10, 2,3,4,6-tetra-O-acetyl-β-D-glucopyranosyl azide] | 98 ± 1 | 99 | 101 ± 1 | 99 ± 0 | neither antiparasitic activity |  |  |  |  | 
CC(=O)OC[C@H]1O[C@@H](n2cc(CCCC(=O)Nc3ccc([S-])cc3)nn2)[C@H](OC(C)=O)[C@@H](OC(C)=O)[C@@H]1OC(C)=O.CC(C)(C)c1ccc(C[S-])cc1.CC(C)(C)c1ccc(C[S-])cc1.Cc1ccc(C(C)C)cc1.Cc1ccc(C(C)C)cc1.[Cl-].[Ru+2].[Ru+2] [Compound 20] |  |  | 100 ± 1 | 1 ± 2 |  | no significant modifications | 98 ± 1 | 99 ± 0 | 77 | 110
